Laboratory results taken from the supplement of paper PMC12513837.
± gives the standard deviation of the averaged measurements.

Compound: CC(=O)N1CCc2c(c(N3CCCc4cc(-c5cnn(C)c5)c(C(F)F)cc43)nn2C2CCC(CN3CCN(c4ccc5c(c4)C(=O)N(C4CCC(=O)NC4=O)C5=O)CC3)CC2)C1 [CBPD-409]
Experiment: AUC of viability dose-response curve (relative to vehicle, 8 doses up to 10 µM) (fraction); higher = less sensitive (more viable); extreme values may be limits of the assay
Description: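 PRISM multiplexed pooled barcoded cell line viability screen at the Broad Institute, 887 cancer cell lines treated with CBPD-409 (p300/CBP PROTAC degrader) at 8 concentrations in threefold dilution, top dose 10 µM. The read-out is the area under the dose-response curve of relative viability versus vehicle (n=3). AUC < 0.3 is called strongly sensitive and AUC > 0.8 resistant.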

Test System | AUC of viability dose-response curve
NB4_HAEMATOPOIETIC_AND_LYMPHOID_TISSUE | 0.277
HCC2108_LUNG | 0.793
CAL120_BREAST | 0.497
YD8_UPPER_AERODIGESTIVE_TRACT | 0.641
RMUGS_OVARY | 0.866
TM31_CENTRAL_NERVOUS_SYSTEM | 0.826
SNU478_BILIARY_TRACT | 0.861
KMS12BM_HAEMATOPOIETIC_AND_LYMPHOID_TISSUE | 0.28
CHLA57_BONE | 0.647
HCC1143_BREAST | 0.623
MDAMB453_BREAST | 0.401
KYSE140_OESOPHAGUS | 1
CL11_LARGE_INTESTINE | 0.326
SW1783_CENTRAL_NERVOUS_SYSTEM | 0.884
CCLP1_BILIARY_TRACT | 0.45
JHH7_LIVER | 0.291
OV17R_OVARY | 0.712
COV644_OVARY | 0.92
MFE280_ENDOMETRIUM | 0.581
ES2_OVARY | 0.986
COLO741_SKIN | 0.559
LS180_LARGE_INTESTINE | 0.961
SNU719_STOMACH | 0.969
NCIH1573_LUNG | 0.699
HS729_SOFT_TISSUE | 0.807 ± 0.27

Test System | AUC of viability dose-response curve
MFE296_ENDOMETRIUM | 0.514
CORL279_LUNG | 1
NCIH292_LUNG | 0.831
SUDHL8_HAEMATOPOIETIC_AND_LYMPHOID_TISSUE | 0.726
MON_SOFT_TISSUE | 0.486
NOZ_LIVER | 1
GP5D_LARGE_INTESTINE | 1
SKMEL28_SKIN | 0.575
SKLU1_LUNG | 0.753
BICR18_UPPER_AERODIGESTIVE_TRACT | 1
HCC1428_BREAST | 0.667
MELHO_SKIN | 0.263
KOSC2CL343_UPPER_AERODIGESTIVE_TRACT | 0.875
DMS273_LUNG | 0.976
SNU1214_UPPER_AERODIGESTIVE_TRACT | 0.739
HCC515_LUNG | 0.612
NCIH1623_LUNG | 0.92
MKN1_STOMACH | 1
TYKNU_OVARY | 0.386
TE8_OESOPHAGUS | 0.646
TOV21G_OVARY | 0.644
COGN278_AUTONOMIC_GANGLIA | 0.345
SKMEL2_SKIN | 1
RHJT_SOFT_TISSUE | 0.512
RL_HAEMATOPOIETIC_AND_LYMPHOID_TISSUE | 0.651

Test System | AUC of viability dose-response curve
RH36_SOFT_TISSUE | 0.779
NCIH2004RT_SOFT_TISSUE | 1
CORL23_LUNG | 1
MCC142_SKIN | 0.969
KMH2_HAEMATOPOIETIC_AND_LYMPHOID_TISSUE | 1
NCIH522_LUNG | 0.942
HEC1_ENDOMETRIUM | 1
KYM1_SOFT_TISSUE | 0.446
TEN_ENDOMETRIUM | 0.726
HEC151_ENDOMETRIUM | 1
NCIH1355_LUNG | 1
GB1_CENTRAL_NERVOUS_SYSTEM | 0.595
SISO_CERVIX | 0.987
NCIH1435_LUNG | 1
KYSE150_OESOPHAGUS | 0.834
RCK8_HAEMATOPOIETIC_AND_LYMPHOID_TISSUE | 0.633
CAS1_CENTRAL_NERVOUS_SYSTEM | 0.665
U87MG_CENTRAL_NERVOUS_SYSTEM | 0.732
ICC4_BILIARY_TRACT | 0.706
OCILY19_HAEMATOPOIETIC_AND_LYMPHOID_TISSUE | 0.725
EW8_BONE | 0.946
OAW42_OVARY | 0.814
KARPAS620_HAEMATOPOIETIC_AND_LYMPHOID_TISSUE | 0.449
